Results as given in PMC7160673, “A Degenerate Peptide Library Approach to Reveal Sequence Determinants of Methyllysine-Driven Protein Interactions” (Frontiers in Cell and Developmental Biology, 2020).
Where no end group is shown, it is not given here. Peg = not defined here

What was measured:
Format in all cases: binding
[1] = tested on: Millipore #07-449, anti-H3K27me3; assay: Histone peptide microarray, Millipore 07-449; details: Millipore 07-449 (anti-H3K27me3) hits, average signal per peptide
Experimental: (§1) Peptide microarrays were fabricated using an Aushon 2470 microarrayer and used as described ([Cornett et al., 2017]) with the following modifications. Protein and antibody hybridization steps were performed in buffer containing 25 mM HEPES pH 7.5, 100 mM NaCl, 0.5% BSA (w/v), and 0.1% NP-40. Slides were washed 3 × 5 min in PBS supplemented with 0.1% Tween-20 between each hybridization step. Antibodies used were primary anti-GST (Sigma #7781, 1:2,000 dilution) and an AlexaFluor 647-labeled secondary antibody (Life Technologies A-21245, 1:5,000 dilution). […] Full lists of peptides queried by array analysis are in Supplementary Table S2.

[2] = tested on: Active Motif #39161, anti-H3K9me3; assay: Histone peptide microarray, Active Motif 39161; details: Active Motif 39161 (anti-H3K9me3) hits
Experimental: as §1

CST 9733 (anti-H3K27me3) = assay: Histone peptide microarray, CST 9733; details: histone peptide array signal normalized to the highest peptide average per subarray, hits; CST 9733 LOT:14 dilution 1:5,000
Experimental: as §1

[3] = tested on: Abcam #ab8895, anti-H3K4me1; assay: Histone peptide microarray, Abcam ab8895; details: Abcam ab8895 (anti-H3K4me1) hits, average signal per peptide
Experimental: as §1

53BP1 TTD = assay: Histone peptide microarray, 53BP1 TTD; details: 53BP1 TTD hits, average signal per peptide
Experimental: as §1

Ac-RRYQKSTELL-Peg-Biot [H3.1.1(52-61)]
Avg Signal [1]: 0.0002743 | Avg Signal [2]: 0.0005198 | Avg Signal (CST 9733 (anti-H3K27me3)): 3.787e-5

KSAPSTGGVK(Me3)KPHRYRPGTV-K(biotin)-NH2 [H3.3K36me3 H3.3(27-46)]
Avg Signal (CST 9733 (anti-H3K27me3)): 0.00263

ARTKQTAR(Me)KSTGGKAPRKQL-Peg-Biot (chain 2 KSTGGKAPRKQL-{Peg-Biot}; not fully specified; reading uncertain) [Peptide H3.1R8me1]
Avg Signal (CST 9733 (anti-H3K27me3)): 0.01735 | Avg Signal [3]: 0.1046

Ac-SGRGK(But)GGK(But)GLGK(But)GGAKRHRKVLR-Peg-Biot [H4K5butK8butK12but]
Avg Signal [1]: 0.01591 | Avg Signal [2]: 0.01514 | Avg Signal (CST 9733 (anti-H3K27me3)): 0.0001351 | Avg Signal [3]: 0.000718

ARTKQTARK(Me2)pSTGGKAPRKQL-K(Biot)-NH2 [H3.1K9me2S10p]
Avg Signal (53BP1 TTD): 0.3509 | Avg Signal [3]: 0.1568

Ac-SGRGKGGK(Ac)GLGKGGAK(Ac)RHRKVLR-Peg-Biot [Peptide H4K8acK16ac]
Avg Signal [2]: 0.003751 | Avg Signal (53BP1 TTD): 0.2331 | Avg Signal [3]: 0.002102

ARTKQTARK(Ac)pSTGGKAPRKQL-K(Biot)-NH2 [Peptide H3.1K9acS10p]
Avg Signal (53BP1 TTD): 0.0481 | Avg Signal [3]: 0.1852

ARTKQTARK(Me)pSTGGKAPRKQL-K(Biot)-NH2 [H3.1K9me1S10p]
Avg Signal (53BP1 TTD): 0.1506 | Avg Signal [3]: 0.1234

Ac-SGRGK(Ac)GGKGLGKGGAKRHRKVLR-Peg-Biot [Peptide H4K5ac]
Avg Signal [2]: 0.04019 | Avg Signal (53BP1 TTD): 0.009315 | Avg Signal [3]: 0.0009033

ARTK(Ac)QTARKSTGGK(Ac)APRKQL-K(Biot)-NH2 [H3.1K4acK14ac]
Avg Signal [2]: 0.0007938 | Avg Signal (53BP1 TTD): 0.2064 | Avg Signal [3]: 0.001132

Ac-APRKQLATKAARK(Me3)pSAPSTGG-Peg-Biot [H3.3K27me3S28p]
Avg Signal [1]: 0.1105 | Avg Signal [2]: 0.0007938 | Avg Signal (CST 9733 (anti-H3K27me3)): 0.1559

ARTKQTARKpSTGGKAPRKQL-K(Biot)-NH2 [Peptide H3.1S10p]
Avg Signal [1]: 0.004546 | Avg Signal (53BP1 TTD): 0.0218 | Avg Signal [3]: 0.06974

Ac-SGRGKGGK(Ac)GLGKGGAKRHRKVLR-Peg-Biot [Peptide H4K8ac]
Avg Signal [2]: 0.001167 | Avg Signal (53BP1 TTD): 0.08696 | Avg Signal [3]: 0.01217

Ac-APRKQLATKAAR(Me2a)KSAPSTGG-Peg-Biot [Peptide H3.3R26me2a]
Avg Signal [1]: 0.001966 | Avg Signal [2]: 0.01154 | Avg Signal (CST 9733 (anti-H3K27me3)): 0.0004634

Ac-pSGCitGK(Ac)QGGKARAKAKTR-Peg-Biot [H2AS1pCit3K5ac]
Avg Signal [1]: 0.006425 | Avg Signal [2]: 0.0032 | Avg Signal (53BP1 TTD): 0.04418 | Avg Signal [3]: 0.004421

ARTK(Me3)QTARKST-Peg-Biot [H3.1K4me3 H3.1(1-11)]
Avg Signal (CST 9733 (anti-H3K27me3)): 1.495e-5

AR(Me2a)TK(Ac)QTARK(Ac)STGGK(Ac)APRK(Ac)QL-K(Biot)-NH2 [H3.1R2me2aK4acK9acK14acK18ac]
Avg Signal [2]: 0.00047 | Avg Signal (53BP1 TTD): 0.1712 | Avg Signal [3]: 0.0001948

Ac-APRKQLATKAARK(Me)SAPSTGG--Peg-Biot [Peptide H3.3K27me1]
Avg Signal [1]: 0.003394 | Avg Signal (53BP1 TTD): 0.1127 | Avg Signal [3]: 0.01351

Ac-GK(Ac)GGAK(Ac)RHRK(Me)VLRDNIQ-Peg-Biot [H4K12acK16acK20me1]
Avg Signal [1]: 0.001642 | Avg Signal [2]: 0.005445 | Avg Signal (CST 9733 (anti-H3K27me3)): 0.0009983

pSGRGK(Ac)QGGK(Ac)ARAK(Ac)AK(Ac)TR-Peg-Biot [H2AS1pK5acK9acK13acK15ac(noN-ac)]
Avg Signal [1]: 0.001023 | Avg Signal (53BP1 TTD): 0.06769 | Avg Signal [3]: 0.0006853

Ac-APRKQLATK(Ac)AARKSAPSTGG-Peg-Biot [Peptide H3.3K23ac]
Avg Signal [2]: 0.006441 | Avg Signal (CST 9733 (anti-H3K27me3)): 0.0001716

Ac-SGRGK(Ac)TGGKARAKAKSR-Peg-Biotin [Peptide H2A.XK5ac]
Avg Signal (CST 9733 (anti-H3K27me3)): 0.0001351

Ac-APRKQLATKAARK(Ac)pSAPSTGG-Peg-K(Biot)-NH2 [H3.3K27acS28p]
Avg Signal [1]: 0.0005992 | Avg Signal [2]: 0.002338 | Avg Signal (CST 9733 (anti-H3K27me3)): 0.0002202

ARTKQTARK(Ac)STGGKAPRK(Ac)QL-K(Biot)-NH2 [H3.1K9acK18ac]
Avg Signal [1]: 0.006063 | Avg Signal [2]: 0.0006444 | Avg Signal (53BP1 TTD): 0.0364 | Avg Signal [3]: 0.2595

Ac-GK(Ac)GGAK(Ac)RHRKVLRDNIQ-Peg-Biot [H4K12acK16ac H4(11-27)]
Avg Signal (CST 9733 (anti-H3K27me3)): 3.787e-5

Ac-SGRGK(Me)GGK(Ac)GLGK(Ac)GGAK(Ac)RHRKVLR-Peg-Biot [H4K5me1K8acK12acK16ac]
Avg Signal [1]: 0.002528 | Avg Signal [2]: 0.0048 | Avg Signal (CST 9733 (anti-H3K27me3)): 1.398e-6 | Avg Signal [3]: 0.01497

Ac-SGRGKTGGKARAKAKSR-Peg-Biotin [H2A.X(1-17)]
Avg Signal [2]: 0.0004918 | Avg Signal (CST 9733 (anti-H3K27me3)): 3.787e-5

ARTKQpTARKSTGGKAPRKQL-K(Biot)-NH2 [Peptide H3.1T6p]
Avg Signal [2]: 0.0005946 | Avg Signal (53BP1 TTD): 0.07045 | Avg Signal [3]: 0.0003583

ARTKQTARK(Ac)STGGKAPRKQL-K(Biot)-NH2 (not fully specified; K9 acetyl; K(Biot)-NH2) [Peptide H3.1K9ac]
Avg Signal [2]: 0.0003455 | Avg Signal (53BP1 TTD): 0.1022 | Avg Signal [3]: 0.168

Ac-GKGGAKRHRK(Me)VLRDNIQ-Peg-Biot [Peptide H4K20me1]
Avg Signal [2]: 7.157e-5 | Avg Signal (53BP1 TTD): 0.5244 | Avg Signal [3]: 0.003452

H3.1.1(15-34) H3.1(15-34): arrayed peptide ID 202 or 2551; same annotation and length
Avg Signal (CST 9733 (anti-H3K27me3)): 0.0005485

PRRRRRRGSSGAGGRGRTCS-Peg-Biot [Peptide H2A.B]
Avg Signal (CST 9733 (anti-H3K27me3)): 0

Ac-SAAKASQSRSAKAGLT-Peg-Biotin [yH2A(10-25)]
Avg Signal (CST 9733 (anti-H3K27me3)): 6.218e-5

Ac-GK(Ac)GGAK(Ac)RHRK(Me2)VLRDNIQ-Peg-Biot [H4K12acK16acK20me2]
Avg Signal (CST 9733 (anti-H3K27me3)): 0.0001487

ARTKQpTAR(Me2a)K(Me3)STGGKAPRKQL-K(Biot)-NH2 [H3.1T6pR8me2aK9me3]
Avg Signal [1]: 0.006631 | Avg Signal [2]: 0.6906 | Avg Signal (CST 9733 (anti-H3K27me3)): 0.008944

ATKAARKSAPATGGVK(Me3)KPHRYRPG-GK(Biotin)-OH [H3.1K36me3 H3.1(21-44)]
Avg Signal (CST 9733 (anti-H3K27me3)): 0.0006093

ARTKQTAR-NleSTGGKAPRKQL-Peg-Biot [Peptide H3.1K9-Nle]
Avg Signal [1]: 0.001582 | Avg Signal (CST 9733 (anti-H3K27me3)): 0.0002703 | Avg Signal [3]: 0.1441

ARTK(Me3)QTARKSTGGKAPRKQL-K(Biot)-NH2 [H3.1K4me3 H3.1(1-20)]
Avg Signal (CST 9733 (anti-H3K27me3)): 0.001817

ARTKQTARKSTGGK(Ac)APRK(Ac)QL-K(Biot)-NH2 [H3.1K14acK18ac]
Avg Signal (53BP1 TTD): 0.1587 | Avg Signal [3]: 0.1741

Ac-SGRGKGGKGLGK(Ac)GGAK(Ac)RHRKVLR-Peg-Biot [H4K12acK16ac H4(1-23)]
Avg Signal (CST 9733 (anti-H3K27me3)): 3.927e-5

Ac-SGR(Me2a)GK(Ac)QGGKARAKAKTR-Peg-Biot [H2AR3me2aK5ac]
Avg Signal [2]: 0.03211 | Avg Signal (53BP1 TTD): 0.03444 | Avg Signal [3]: 0.0107

PEPAK(Me)SAPAPKKGSKKAVTKAQKK-Peg-Biot [Peptide H2BK5me1]
Avg Signal [1]: 0.01581 | Avg Signal [2]: 0.004346 | Avg Signal (53BP1 TTD): 0.1012 | Avg Signal [3]: 0.004522
